These results are taken from PubChem BioAssay (NCI).

The structures appear in SMILES notation.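 Each compound was tested at five concentrations against cells in 96-well plates for 48 hours. TGI: total growth inhibition.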

Some test systems named below: MALME-3M melanoma; A498 renal; NCI-H23 lung; SF-295 CNS; MDA-MB-231 breast; DU-145 prostate; UACC-62 melanoma; EKVX NSCLC; OVCAR-4 ovarian; ACHN renal; OVCAR-3 ovarian; MCF7 breast; SF-539 CNS; T-47D breast; SF-268 CNS; CCRF-CEM leukemia; HCT-15 colon; U251 CNS; SW-620 colon; SK-MEL-2 melanoma.
Test in all cases: DTP human tumour cell line panel, 48 h

The term TGI denotes the concentration giving total growth inhibition. A higher TGI goes with lower sensitivity of the cells. For `COc1cc2oc(-c3ccc4c(c3)OCO4)c(OC)c(=O)c2c(OC)c1O`, the concentration for total growth inhibition (TGI) with MALME-3M melanoma, with A498 renal, in the test with NCI-H23 lung, with SF-295 CNS, with MDA-MB-231 breast and in the test with DU-145 prostate was > 100 µM each time. In addition, the total growth inhibition concentration (TGI) with UACC-62 melanoma, in the test on EKVX NSCLC, with OVCAR-4 ovarian, with ACHN renal, in the test with OVCAR-3 ovarian and in the test on MCF7 breast was > 100 µM each time. Also, the total growth inhibition concentration (TGI) in the test with SF-539 CNS, in the test with T-47D breast, with SF-268 CNS, in the test with CCRF-CEM leukemia, with HCT-15 colon and in the test on U251 CNS was > 100 µM in each case. The TGI in the test with SW-620 colon is > 100 µM.
`O=C(CCCN1CCC2(CC1)CC(=O)N(N1CCOCC1)C2=O)c1ccc(F)cc1`: the TGI in the test with MALME-3M melanoma, in the test on A498 renal, in the test with NCI-H23 lung, in the test on SF-295 CNS, in the test on MDA-MB-231 breast and with DU-145 prostate was > 100 µM each time. For the same compound, the TGI in the test with UACC-62 melanoma, in the test on ACHN renal, in the test on OVCAR-3 ovarian, with SK-MEL-2 melanoma, in the test on MCF7 breast and in the test on SF-539 CNS was > 100 µM each time. Further, the total growth inhibition concentration (TGI) in the test with T-47D breast, with SF-268 CNS, with CCRF-CEM leukemia, with HCT-15 colon, with U251 CNS and in the test on SW-620 colon was > 100 µM throughout.
Turning to `CC(=O)Oc1ccc2cc(Oc3ccc(Cl)c(Cl)c3)c(=O)oc2c1`, the total growth inhibition concentration (TGI) in the test on MALME-3M melanoma is 94.1 µM; in the test with A498 renal, 65.8 µM; with NCI-H23 lung it was > 100 µM; with SF-295 CNS it was > 100 µM; in the test with MDA-MB-231 breast, > 100 µM; with DU-145 prostate, > 100 µM. Also, the total growth inhibition concentration (TGI) in the test on EKVX NSCLC was 80.8 µM; with OVCAR-4 ovarian it was > 100 µM; in the test on ACHN renal, 72.6 µM; in the test with OVCAR-3 ovarian, 50 µM; with MCF7 breast, 80.6 µM; with SF-539 CNS, 46.8 µM. For the same compound, the concentration for total growth inhibition (TGI) in the test on T-47D breast was 99.3 µM; in the test on SF-268 CNS, > 100 µM; in the test with CCRF-CEM leukemia it was > 100 µM; with HCT-15 colon it was 53.8 µM; with U251 CNS it was 41.5 µM; in the test with SW-620 colon, > 100 µM.
Turning to `C=C(C)[C@@]1(O)CCCC[C@@H]1CC(Sc1ccccc1)Sc1ccccc1`, the concentration for total growth inhibition (TGI) in the test on MALME-3M melanoma was determined as 26.2 µM; in the test with A498 renal it was 68.4 µM; with NCI-H23 lung it was 29.9 µM; in the test on SF-295 CNS it was 32.8 µM; in the test on MDA-MB-231 breast, 38.7 µM; with DU-145 prostate, 30.1 µM. For the same compound, the TGI in the test on UACC-62 melanoma was > 100 µM; with EKVX NSCLC, 28.7 µM; with OVCAR-4 ovarian, 29.1 µM; in the test with ACHN renal it was > 100 µM; in the test on SK-MEL-2 melanoma it was 30.1 µM; in the test with MCF7 breast it was 53.9 µM. The total growth inhibition concentration (TGI) was 29 µM with T-47D breast; 31.1 µM in the test on SF-268 CNS; > 100 µM with CCRF-CEM leukemia; 33.3 µM with HCT-15 colon; 53.9 µM with U251 CNS.
Regarding `CN(C)CCNC(=O)c1cccc2c(NC(CS)C(=O)O)c3ccccc3[n+](C)c12` (stereo not given), the total growth inhibition concentration (TGI) in the test on MALME-3M melanoma, in the test on A498 renal, in the test on NCI-H23 lung, with SF-295 CNS, with MDA-MB-231 breast and in the test on DU-145 prostate was > 100 µM each time. Further, the concentration for total growth inhibition (TGI) with UACC-62 melanoma, with EKVX NSCLC, in the test with OVCAR-4 ovarian, in the test on ACHN renal, with OVCAR-3 ovarian and in the test on SK-MEL-2 melanoma was > 100 µM throughout. Further, the concentration for total growth inhibition (TGI) in the test with MCF7 breast is > 100 µM; with SF-539 CNS it was > 100 µM; in the test with T-47D breast, > 100 µM; in the test on SF-268 CNS, 80.8 µM; with HCT-15 colon it was > 100 µM; with U251 CNS it was > 100 µM. Also, the concentration for total growth inhibition (TGI) in the test with SW-620 colon was > 100 µM.
With `CCC1CCN=C(NS(=O)(=O)c2cc(C)c(Cl)cc2S)N1` (stereo not given), the TGI in the test on MALME-3M melanoma was 92.9 µM; in the test with A498 renal, > 100 µM; with MDA-MB-231 breast, > 100 µM; in the test on DU-145 prostate it was > 100 µM; in the test with UACC-62 melanoma, 54.3 µM; with EKVX NSCLC it was > 100 µM. The TGI in the test on OVCAR-4 ovarian is > 100 µM; in the test on ACHN renal, > 100 µM; with SK-MEL-2 melanoma, > 100 µM; in the test with MCF7 breast it was > 100 µM; in the test on SF-539 CNS it was > 100 µM; in the test on T-47D breast, 98.5 µM. Further, the TGI is > 100 µM in the test on SF-268 CNS; 88.1 µM in the test with CCRF-CEM leukemia; > 100 µM with HCT-15 colon; 93 µM in the test with U251 CNS; 90.3 µM with SW-620 colon.
Turning to `CC(Oc1ccccc1Cl)C(=O)NN1C(=O)CC(=O)NC1=S` (stereo not given), the TGI with MALME-3M melanoma, in the test on A498 renal, in the test on NCI-H23 lung, in the test on SF-295 CNS, in the test with MDA-MB-231 breast and in the test with DU-145 prostate was > 100 µM each time. Moreover, the TGI in the test on UACC-62 melanoma, with EKVX NSCLC, with OVCAR-4 ovarian, in the test on ACHN renal, with OVCAR-3 ovarian and with SK-MEL-2 melanoma was > 100 µM each time. For the same compound, the TGI in the test with MCF7 breast, in the test on SF-539 CNS, with T-47D breast, with SF-268 CNS, in the test on HCT-15 colon and in the test on U251 CNS was > 100 µM throughout. In addition, the total growth inhibition concentration (TGI) with SW-620 colon was > 100 µM.
`O=C(CC(C(=O)c1cccs1)c1ccsc1)c1ccccc1` (stereo not given): the total growth inhibition concentration (TGI) in the test on A498 renal was > 100 µM; with NCI-H23 lung it was 85.4 µM; in the test on SF-295 CNS, > 100 µM; in the test on MDA-MB-231 breast it was 96.9 µM; with DU-145 prostate it was > 100 µM; in the test with UACC-62 melanoma it was > 100 µM. Besides, the concentration for total growth inhibition (TGI) in the test on EKVX NSCLC was > 100 µM; with OVCAR-4 ovarian it was > 100 µM; with ACHN renal it was > 100 µM; with OVCAR-3 ovarian it was > 100 µM; in the test on MCF7 breast, 99.1 µM; in the test on SF-539 CNS, > 100 µM. For the same compound, the concentration for total growth inhibition (TGI) with T-47D breast, in the test with SF-268 CNS, in the test on CCRF-CEM leukemia, in the test with HCT-15 colon, in the test on U251 CNS and in the test on SW-620 colon was > 100 µM throughout.
